{
  "source": "patent EP0039085A1",
  "about": "“Process for increasing the solubility of aromatic systems” (Langhals, Heinz, Dr., priority 1980, dated 1981)",
  "key": {"[1]": {"experiment": "Absolute fluorescence quantum yield", "format": "physicochemical"}, "[2]": {"experiment": "Solubility in organic solvents: effect of tert-butyl substitution", "format": "physicochemical", "settings": "for Löslichkeitssteigerung um einen Faktor: relative to unsubstituted Rubicen (I)", "from_the_text": "Der Einfluß der Substitution mit tert.-Butylgruppen wurde an folgenden Systemen untersucht."}},
  "data": [
    {"compound": "CC(C)(C)c1ccccc1N1C(=O)c2ccc3c4ccc5c6c(ccc(c7ccc(c2c37)C1=O)c64)C(=O)N(c1ccccc1C(C)(C)C)C5=O", "note": "[Beispiel 3, N,N'-Di-(2-tert.-butyl)-perylen-3,4,9,10-tetracarbonsäure-diimid]", "values": [
      {"measurement": "Fluoreszenzquantenausbeute (absolut) η", "setting": "[1]; Chloroform", "result": "1,0"},
      {"measurement": "Fluoreszenzquantenausbeute (absolut) η", "setting": "[1]; Dimethylformamid (DMF)", "result": "0,94"}
    ]},
    {"compound": "CC(C)(C)c1ccc(N2C(=O)c3ccc4c5ccc6c7c(ccc(c8ccc(c3c48)C2=O)c75)C(=O)N(c2ccc(C(C)(C)C)cc2)C6=O)cc1", "note": "[Beispiel 4, N,N'-Di-(4-tert.-butylphenyl)-perylen-3,4,9,10-tetra-carbonsäurediimid]", "values": [
      {"measurement": "Fluoreszenzquantenausbeute (absolut) η", "setting": "[1]; Dimethylformamid (DMF)", "result": "0,88"}
    ]},
    {"compound": "O=C1c2ccc3c4ccc5c6c(ccc(c7ccc(c2c37)C(=O)N1c1ccccc1)c64)C(=O)N(c1ccccc1)C5=O", "note": "[III, reference compound]", "values": [
      {"measurement": "Löslichkeit", "setting": "[2]; in organischen Lösungsmitteln", "result": "sehr geringe"}
    ]},
    {"compound": "Di-tert.-butylrubicen", "values": [
      {"measurement": "Löslichkeitssteigerung um einen Faktor", "setting": "[2]; in n-Hexan bei Zimmertemperatur", "result": "ca. 100"},
      {"measurement": "Löslichkeitssteigerung um einen Faktor", "setting": "[2]; in Äthanol bei Zimmertemperatur", "result": "ca. 100"}
    ]},
    {"compound": "Tetra-tert.-butylrubicen", "values": [
      {"measurement": "erhöhte die Löslichkeit um einen Faktor", "setting": "[2]; solvent not restated (preceding sentence: Äthanol und n-Hexan bei Zimmertemperatur), relative to Rubicen", "result": "ca. 10"}
    ]}
  ]
}
